Target: T1, human PPARγ ligand-binding domain (Homo sapiens, UniProt P37231)
T1 construct: expressed in transfected cells; host or cells: CV-1 cells (African green monkey kidney)
T1 sequence (P37231 204-505): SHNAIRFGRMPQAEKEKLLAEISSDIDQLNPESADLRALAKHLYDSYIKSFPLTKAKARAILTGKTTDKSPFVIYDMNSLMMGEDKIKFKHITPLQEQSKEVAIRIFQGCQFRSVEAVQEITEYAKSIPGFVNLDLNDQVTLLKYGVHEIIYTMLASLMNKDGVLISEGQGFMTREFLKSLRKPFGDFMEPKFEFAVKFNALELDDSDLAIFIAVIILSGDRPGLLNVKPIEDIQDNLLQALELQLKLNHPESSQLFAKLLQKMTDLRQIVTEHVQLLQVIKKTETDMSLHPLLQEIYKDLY
Assay: GAL4-hPPARγ luciferase reporter assay (PPARγ ligand activity) in transfected CV-1 cells
Format: cell-based
Settings: for PPARγ ligand activity: 24 hour incubation, CV-1 cells, luciferase activity relative to non-treatment control (DMSO) = 100, average ± standard error, n=4
Protocol: First, CV-1 cells (cultured cells derived from kidneys of male African green monkeys) were implanted on 24-well culture plates so as to be […] and cultured at 37° C. in 5% CO2 for 24 hours. As a medium, DMEM (Dulbecco's Modified Eagle Medium; manufactured by GIBCO) containing 10% FBS (fetal bovine serum) and a 10 mg/mL penicillin streptomycin solution was used. Next, using Lipofectamine system (manufactured by Invitrogen Corporation), pM-hPPARγ and p4×UASg-tk-luc were transfected into the cultured CV-1 cells. The above-noted pM-hPPARγ was a vector for expressing fused protein containing residues 1 - 147 of GAL4 binding domain and residues 204 - 505 of human PPARγ ligand-binding domain, whereas the above-noted p4×UASg-tk-luc was a reporter plasmid containing four copies of an upstream activating sequence (UAS) for GAL4 binding domain and a thymidine kinase gene promoter in front of a luciferase gene. After the transfection, the cells were cultured for about 24 hours, and then, the media for the cells were changed to media containing β-cryptoxantine at respective concentrations (0.1, 1.0, 10 and 70 μM) or media for non-treatment control, followed by an additional 24 hour incubation. The above-noted media containing β-cryptoxantine were prepared by adding β-cryptoxantine dissolved in dimethyl sulfoxide (DMSO) to the media, whereas the media for non-treatment control were prepared by adding only DMSO to the media. After the incubation, the cells were lysed for luciferase activation assay using a Dual-Luciferase Reporter Gene Assay system (manufactured by Promega Corporation) (measurement group).
Similarly to the measurement group, as a control group, the luciferase activation assay was performed using pM (a vector containing residues 1 - 147 of GAL4 binding domain and not containing residues 204-505 of PPARγ ligand-binding domain in pM-hPPARγ) instead of pM-hPPARγ. For each sample, the ratio between average light-emission intensities of the measurement group and the control group (n=4) (measurement group/control group) was calculated, and a luciferase activity relative to the non-treatment control was determined as the PPARγ ligand-binding activity of the sample.

SMILES: CC1=C(/C=C/C(C)=C/C=C/C(C)=C/C=C/C=C(C)/C=C/C=C(C)/C=C/C2=C(C)C[C@@H](O)CC2(C)C)C(C)(C)CCC1 [β-cryptoxantine]
- activity of PPARγ (result in words) (0.1 to 70 μM, activity increased in keeping with the concentration): improved the activity of PPARγ
- PPARγ ligand activity (addition concentration 0.1 μM): 119 ± 18.4
- PPARγ ligand activity (addition concentration 1.0 μM): 159 ± 25.0
- PPARγ ligand activity (addition concentration 10 μM): 166 ± 21.7
- PPARγ ligand activity (addition concentration 70 μM): 246 ± 22.5

— patent publication US20070218147A1, “Peroxisome Proliferator-Activated Receptor (Ppar) Activator, and Drugs, Supplements, Functional Foods and Food Additives Using the Same” (ARKRAY, INC., priority 2004, published 2007)
